Conditions: 101.33 kPa, Liquid; for viscosity: Concentric cylinders viscometry; for electrical conductivity: Direct current cell with electrodes

CCCC[N+]1(C)CCCC1.O=S(=O)([N-]S(=O)(=O)C(F)(F)F)C(F)(F)F
Conditions | electrical conductivity [S/m] | mass density [kg/m3] | viscosity [mPa·s]
293.15 K | – | 1399 | –
298.15 K | 0.277 | 1394.57 | 76.73
299.15 K | 0.288 | – | –
300.15 K | 0.3 | – | –
301.15 K | 0.313 | – | –
302.15 K | 0.327 | – | –
303.15 K | 0.34 | 1390.02 | 61.67
304.15 K | 0.354 | – | –
305.15 K | 0.368 | – | –
306.15 K | 0.383 | – | –
307.15 K | 0.398 | – | –
308.15 K | 0.412 | 1385.48 | 50.49
309.15 K | 0.427 | – | –
310.15 K | 0.443 | – | –
311.15 K | 0.459 | – | –
312.15 K | 0.475 | – | –
313.15 K | 0.492 | 1380.93 | 41.73
314.15 K | 0.509 | – | –
315.15 K | 0.527 | – | –
316.15 K | 0.544 | – | –
317.15 K | 0.562 | – | –
318.15 K | 0.58 | 1376.28 | 34.67
319.15 K | 0.598 | – | –
320.15 K | 0.616 | – | –
321.15 K | 0.635 | – | –
322.15 K | 0.655 | – | –
323.15 K | 0.673 | 1371.64 | 29.48
324.15 K | 0.694 | – | –
325.15 K | 0.713 | – | –
326.15 K | 0.733 | – | –
327.15 K | 0.754 | – | –
328.15 K | 0.775 | 1366.9 | 25.43
329.15 K | 0.795 | – | –
330.15 K | 0.816 | – | –
331.15 K | 0.839 | – | –
332.15 K | 0.86 | – | –
333.15 K | 0.884 | 1362.2 | 21.9
334.15 K | 0.911 | – | –
335.15 K | 0.938 | – | –
336.15 K | 0.965 | – | –
337.15 K | 0.993 | – | –
338.15 K | 1.02 | 1357.35 | 19.16
339.15 K | 1.05 | – | –
340.15 K | 1.08 | – | –
341.15 K | 1.11 | – | –
342.15 K | 1.13 | – | –
343.15 K | 1.17 | 1352.44 | 16.82
344.15 K | 1.2 | – | –
345.15 K | 1.23 | – | –
346.15 K | 1.26 | – | –
347.15 K | 1.29 | – | –
348.15 K | 1.32 | 1347.48 | 14.8
349.15 K | 1.36 | – | –
350.15 K | 1.4 | – | –
351.15 K | 1.43 | – | –
352.15 K | 1.46 | – | –
353.15 K | 1.49 | 1342.48 | 13.24

CCCC[n+]1ccn(C)c1.O=S(=O)([N-]S(=O)(=O)C(F)(F)F)C(F)(F)F
Conditions | electrical conductivity [S/m] | mass density [kg/m3] | viscosity [mPa·s]
293.15 K | – | 1439.27 | –
298.15 K | 0.402 | 1434.3 | 50.05
299.15 K | 0.417 | – | –
300.15 K | 0.435 | – | –
301.15 K | 0.453 | – | –
302.15 K | 0.47 | – | –
303.15 K | 0.488 | 1429.4 | 41.24
304.15 K | 0.506 | – | –
305.15 K | 0.524 | – | –
306.15 K | 0.543 | – | –
307.15 K | 0.562 | – | –
308.15 K | 0.581 | 1424.57 | 33.65
309.15 K | 0.602 | – | –
310.15 K | 0.622 | – | –
311.15 K | 0.643 | – | –
312.15 K | 0.664 | – | –
313.15 K | 0.684 | 1419.61 | 28.28
314.15 K | 0.706 | – | –
315.15 K | 0.729 | – | –
316.15 K | 0.751 | – | –
317.15 K | 0.773 | – | –
318.15 K | 0.795 | 1414.67 | 23.91
319.15 K | 0.82 | – | –
320.15 K | 0.842 | – | –
321.15 K | 0.866 | – | –
322.15 K | 0.891 | – | –
323.15 K | 0.921 | 1409.65 | 20.64
324.15 K | 0.949 | – | –
325.15 K | 0.983 | – | –
326.15 K | 1.01 | – | –
327.15 K | 1.04 | – | –
328.15 K | 1.07 | 1404.64 | 17.9
329.15 K | 1.1 | – | –
330.15 K | 1.14 | – | –
331.15 K | 1.17 | – | –
332.15 K | 1.21 | – | –
333.15 K | 1.24 | 1399.6 | 15.51
334.15 K | 1.27 | – | –
335.15 K | 1.31 | – | –
336.15 K | 1.34 | – | –
337.15 K | 1.38 | – | –
338.15 K | 1.41 | 1394.43 | 13.71
339.15 K | 1.45 | – | –
340.15 K | 1.48 | – | –
341.15 K | 1.52 | – | –
342.15 K | 1.55 | – | –
343.15 K | 1.59 | 1389.16 | 12.09
344.15 K | 1.63 | – | –
345.15 K | 1.67 | – | –
346.15 K | 1.71 | – | –
347.15 K | 1.74 | – | –
348.15 K | 1.78 | 1383.85 | 10.78
349.15 K | 1.82 | – | –
350.15 K | 1.86 | – | –
351.15 K | 1.9 | – | –
352.15 K | 1.94 | – | –
353.15 K | 1.98 | 1378.53 | 9.69

Source: the NIST ThermoML archive (doi:10.1021/je2010837)
